Reference: the Deep4Chem optical property database

Test: photoluminescence quantum yield (fraction); solvent given as SMILES
[1] = in O=P(c1ccccc1)(c1ccccc1)c1ccccc1Oc1ccccc1P(=O)(c1ccccc1)c1ccccc1

## COc1cc(/C=C/c2ccccn2)c(OC)cc1C=O
In C1CCOC1
  photoluminescence quantum yield: 0.19
In CC#N
  photoluminescence quantum yield: 0.24
In CN(C)C=O
  photoluminescence quantum yield: 0.21
In Cc1ccccc1
  photoluminescence quantum yield: 0.16
In ClCCl
  photoluminescence quantum yield: 0.36

## Cc1c(-c2ccc(N3c4ccccc4C(C)(C)c4ccccc43)cc2)ncnc1-c1ccc(N2c3ccccc3C(C)(C)c3ccccc32)cc1
[1]
  photoluminescence quantum yield: 0.75

## O=c1oc2ccccc2cc1C#Cc1ccccc1
In CC#N
  photoluminescence quantum yield: 0.88

## COc1cc2c(cc1-c1ccsc1)Cc1c3c(c4c(c1-2)-c1cc(OC)c(-c2ccsc2)cc1C4)C(=O)N(CCC(C)C)C3=O
In C1CCOC1
  photoluminescence quantum yield: 0.55

## CC1=CC(C)=[N+]2C1=Cc1c3ccccc3c(-c3[nH]c(C)cc3C)n1[B-]2(F)F
In ClCCl
  photoluminescence quantum yield: 0.61

## COc1ccc(/C=C/C=C/C=C/c2ccc([N+](=O)[O-])cc2)cc1
In C1CCOC1
  photoluminescence quantum yield: 0.44
In C1COCCO1
  photoluminescence quantum yield: 0.57
In CC1CCCCC1
  photoluminescence quantum yield: 0.21
In CC#N
  photoluminescence quantum yield: 0.013
In CO
  photoluminescence quantum yield: 0.002
In CS(C)=O
  photoluminescence quantum yield: 0.03
In Cc1ccccc1
  photoluminescence quantum yield: 0.63
In ClC(Cl)Cl
  photoluminescence quantum yield: 0.14
In ClCCl
  photoluminescence quantum yield: 0.074

## CCCCCOc1cc2oc(=O)c3c4ccc(O)cc4c4ccc5cccc6c(c1)c2c3c4c56
In C1CCOC1
  photoluminescence quantum yield: 0.27

## CCCSC1=[N+]2C(=C(c3ccccc3)c3ccc(SCCC)n3[B-]2(F)F)C=C1
In CC#N
  photoluminescence quantum yield: 0.44
In CCCCCC
  photoluminescence quantum yield: 0.34
In CCOC(C)=O
  photoluminescence quantum yield: 0.36
In CO
  photoluminescence quantum yield: 0.42
In ClCCl
  photoluminescence quantum yield: 0.43

## C(=C/c1ccc(N(c2ccccc2)c2ccccc2)cc1)/c1ccc(N(c2ccccc2)c2ccccc2)cc1
In ClCCl
  photoluminescence quantum yield: 0.99

## CCOC(=O)/C(C)=C/C1=C(c2ccc(C)cc2)C2=Nc3c(-c4ccc(C)cc4)c(Br)c(-c4ccc(C)cc4)n3[B-](F)(F)[N+]2=C1c1ccc(C)cc1
In ClC(Cl)Cl
  photoluminescence quantum yield: 0.03

## COc1ccc(C2=[N+]3C(=C(c4ccc(I)cc4)c4ccc(-c5ccc(OC)cc5)n4[B-]3(F)F)C=C2)cc1
In ClC(Cl)Cl
  photoluminescence quantum yield: 0.42

## F[B-]1(F)n2c(ccc2-c2nc3ccccc3s2)C(c2ccccc2)=C2C=CC(c3nc4ccccc4s3)=[N+]21
In ClC(Cl)Cl
  photoluminescence quantum yield: 0.86

## CC1=CC(C)=[N+]2C1=C(C1=C(C)C3=C(C)c4c(C)cc(C)n4[B-](F)(F)[N+]3=C1C)c1c(C)cc(C)n1[B-]2(F)F
In ClC(Cl)Cl
  photoluminescence quantum yield: 0.03

## CCN(CC)c1ccc(/C=N/C2CCCCC2/N=C/c2ccc(N(CC)CC)cc2O)c(O)c1 (stereo not drawn)
In CC#N
  photoluminescence quantum yield: 0.068

## C(=C\c1cc[n+](Cc2ccccc2)cc1)/c1cc[n+](Cc2ccccc2)cc1
In CC#N
  photoluminescence quantum yield: 0.0006

## CCCN1/C(=C/C=C(/C=C/C2=[N+](CCC)c3ccccc3C2(C)C)c2ccncc2)C(C)(C)c2ccccc21
In CO
  photoluminescence quantum yield: 0.24
In CS(C)=O
  photoluminescence quantum yield: 0.15
In O
  photoluminescence quantum yield: 0.07

## O=c1c2cc(I)ccc2nc2n1[B-](F)(F)[n+]1ccccc1-2
In CC#N
  photoluminescence quantum yield: 0.58
In ClCCl
  photoluminescence quantum yield: 0.73

## CC(C)(C)c1cc(-c2cc3nc4c5ccc(N6c7ccccc7Oc7ccccc76)cc5c5cc(N6c7ccccc7Oc7ccccc76)ccc5c4nc3cc2-c2cc(C(C)(C)C)cc(C(C)(C)C)c2)cc(C(C)(C)C)c1
In c1ccc2c(c1)c1ccccc1n2-c1ccc(-c2ccc(-n3c4ccccc4c4ccccc43)cc2)cc1
  photoluminescence quantum yield: 0.83

## CN(C)c1ccc(C2=Nc3sc4ccccc4[n+]3[B-](F)(F)O2)cc1
In C1CCOC1
  photoluminescence quantum yield: 0.78
In CC#N
  photoluminescence quantum yield: 0.17
In CC(C)=O
  photoluminescence quantum yield: 0.31
In Cc1ccccc1
  photoluminescence quantum yield: 0.84
In ClCCl
  photoluminescence quantum yield: 0.77

## CCOC(CN1C(=O)C2=C(c3ccsc3)N(CC(OCC)OCC)C(=O)C2=C1c1ccsc1)OCC
In ClC(Cl)Cl
  photoluminescence quantum yield: 0.9

## Fc1ccc2c(c1)sc1nc(-c3ccccc3)sc12
In CS(C)=O
  photoluminescence quantum yield: 0.36

## CCCCN1C(=O)c2ccc3c4c(Br)cc5c6c(ccc(c7c(Br)cc(c2c37)C1=O)c64)C(=O)N(CCCC)C5=O
In ClC(Cl)Cl
  photoluminescence quantum yield: 0.73

## Cc1cn(CCCn2cc(C)c(=O)[nH]c2=O)c(=O)nc1-n1cncn1
In O
  photoluminescence quantum yield: 0.016

## CC(=O)Nc1ccc(O)cc1
In C1CCOC1
  photoluminescence quantum yield: 0.0031
In CC#N
  photoluminescence quantum yield: 0.0035
In CCCCO
  photoluminescence quantum yield: 0.0007
In CO
  photoluminescence quantum yield: 0.0037
In CS(C)=O
  photoluminescence quantum yield: 0.0022

## CC1(C)[C@@H]2[C@@H]1[C@]1(c3ccccc3)N=NC2(c2ccccc2)C2C3C=CC(C3)C21 (stereo partly drawn)
In CC#N
  photoluminescence quantum yield: 0.08

## CCCCCCCCCCOc1cc(OCCCCCCCCCC)cc(C2=C3C(/C=C/c4ccc(N(C)C)cc4)=C(C#Cc4ccc(C(C)(C)C)cc4)C(/C=C/c4ccc(N(C)C)cc4)=[N+]3[B-](F)(F)n3c(/C=C/c4ccc(N(C)C)cc4)c(C#Cc4ccc(C(C)(C)C)cc4)c(/C=C/c4ccc(N(C)C)cc4)c32)c1
In ClC(Cl)Cl
  photoluminescence quantum yield: 0.05

## CCCCC(CC)CN1C(=O)c2cc(Oc3ccc(C(C)(C)C)cc3)c3c4c(Cl)cc5c6c(cc(Cl)c(c7c(Oc8ccc(C(C)(C)C)cc8)cc(c2c37)C1=O)c64)C(=O)N(c1c(C(C)C)cccc1C(C)C)C5=O (stereo not drawn)
In Cc1ccccc1
  photoluminescence quantum yield: 0.72

## N#Cc1cccc(N2c3ccccc3C(c3ccccc3)(c3ccccc3)c3ccccc32)c1
In Cc1ccccc1
  photoluminescence quantum yield: 0.1

## COC1(OC)C2(Cl)c3nc4cc(-c5cccs5)ccc4nc3C1(Cl)C1C[C@H]3[C@@H](CC12)C1(Cl)c2nc4ccc(-c5cccs5)cc4nc2C3(Cl)C1(OC)OC (stereo partly drawn)
In CC#N
  photoluminescence quantum yield: 0.57
In CCOC(C)=O
  photoluminescence quantum yield: 0.22
In CO
  photoluminescence quantum yield: 0.49
In Cc1ccccc1
  photoluminescence quantum yield: 0.13
In ClC(Cl)Cl
  photoluminescence quantum yield: 0.35
In ClCCl
  photoluminescence quantum yield: 0.33

## CCn1c(-c2ccc(-c3cccc4ccccc34)cc2)c(-c2ccc3ccccc3c2)c(-c2ccc3ccccc3c2)c1-c1ccc(-c2cccc3ccccc23)cc1
In CCOC(C)=O
  photoluminescence quantum yield: 0.35

## Cn1c2ccc(S(=O)(=O)O)cc2c(=O)c2cc(S(=O)(=O)O)ccc21
In CS(C)=O
  photoluminescence quantum yield: 0.64
In O
  photoluminescence quantum yield: 0.76

## COC(=O)C(Cc1ccc2oc(-c3ccc(N(C)c4ccccc4)cc3)nc2c1)NC(=O)OC(C)(C)C (stereo not drawn)
In C1CCCCC1
  photoluminescence quantum yield: 0.998
In C1CCOC1
  photoluminescence quantum yield: 0.27
In C1COCCO1
  photoluminescence quantum yield: 0.73
In CC1CCCO1
  photoluminescence quantum yield: 0.52
In CC1COC(=O)O1
  photoluminescence quantum yield: 0.11
In CC#N
  photoluminescence quantum yield: 0.11
In CC(C)=O
  photoluminescence quantum yield: 0.19
In CC(C)CC(C)(C)C
  photoluminescence quantum yield: 1
In CC(C)CO
  photoluminescence quantum yield: 0.2
In CC(C)O
  photoluminescence quantum yield: 0.19
In CC(O)CO
  photoluminescence quantum yield: 0.11
In CCC(C)CC
  photoluminescence quantum yield: 0.97
In CCCCC
  photoluminescence quantum yield: 1
In CCCCCC
  photoluminescence quantum yield: 1
In CCCCCCCCC
  photoluminescence quantum yield: 0.95
In CCCCCCCCCC
  photoluminescence quantum yield: 1
In CCCCCCCO
  photoluminescence quantum yield: 0.21
In CCCCCCO
  photoluminescence quantum yield: 0.22
In CCCCCO
  photoluminescence quantum yield: 0.28
In CCCCO
  photoluminescence quantum yield: 0.18
In CCO
  photoluminescence quantum yield: 0.07
In CCOC(C)=O
  photoluminescence quantum yield: 0.39
In CCOCC
  photoluminescence quantum yield: 0.6
In CN(C)C=O
  photoluminescence quantum yield: 0.16
In CO
  photoluminescence quantum yield: 0.03
In COCCOC
  photoluminescence quantum yield: 0.07
In CS(C)=O
  photoluminescence quantum yield: 0.15
In Cc1ccccc1
  photoluminescence quantum yield: 0.78
In Cc1ccccc1C
  photoluminescence quantum yield: 0.84
In ClC(Cl)Cl
  photoluminescence quantum yield: 0.58
In ClCCl
  photoluminescence quantum yield: 0.45
In NC=O
  photoluminescence quantum yield: 0.02
In OC1CCCCC1
  photoluminescence quantum yield: 0.18
In OCCO
  photoluminescence quantum yield: 0.03
In c1ccccc1
  photoluminescence quantum yield: 0.76

## COc1cc2c(cc1OC)C1=C[C@H](c3ccc(Cl)cc3)C3(C(C#N)=C(C#N)N1CC2)c1cc(Br)ccc1-c1ccc(Br)cc13
In ClCCl
  photoluminescence quantum yield: 0.00019

## F[B-]1(F)n2c(nc3c4ccccc4c4ccccc4c32)-c2cccc[n+]21
In CC#N
  photoluminescence quantum yield: 0.08
In CCCCCC
  photoluminescence quantum yield: 0.95
In CO
  photoluminescence quantum yield: 0.14
In ClC(Cl)Cl
  photoluminescence quantum yield: 0.3
In ClCCl
  photoluminescence quantum yield: 0.32

## CC(C)c1cccc(C(C)C)c1N1C(=O)c2ccc3cc4c(cc5ccc6c7c(ccc4c57)C(=O)N(c4c(C(C)C)cccc4C(C)C)C6=O)c4ccc(c2c34)C1=O
In ClCCl
  photoluminescence quantum yield: 0.53

## F[B-]1(F)n2c(-c3ccccc3)cc(-c3ccccc3)c2C(c2ccccc2)=C2C(c3ccccc3)=CC(c3ccccc3)=[N+]21
In C1CCOC1
  photoluminescence quantum yield: 0.31

## c1ccc2c(c1)c1ccccc1n2-c1ccc2c(c1)c1ccccc1n2-c1cc2c3ccccc3n3c4ccccc4c(c1)c23
[1]
  photoluminescence quantum yield: 0.53

## CC1(C)c2ccccc2-c2sc3ccccc3c21
In ClCCl
  photoluminescence quantum yield: 0.11

## c1ccc(-c2c3c(c(-c4ccccc4)c4cc5ccccc5cc24)Cc2c(c(-c4ccccc4)c4cc5ccccc5cc4c2-c2ccccc2)C3)cc1
In CC#N
  photoluminescence quantum yield: 0.27
In CCCCCC
  photoluminescence quantum yield: 0.28
In CO
  photoluminescence quantum yield: 0.3
In Cc1ccccc1
  photoluminescence quantum yield: 0.61
In ClCCl
  photoluminescence quantum yield: 0.21

## CCN1C(=CC2=C([O-])C(=Cc3sc4ccccc4[n+]3CC)C2=O)Sc2ccccc21
In CC(C)O
  photoluminescence quantum yield: 0.13

## C(#Cc1nccnc1C#Cc1ccccc1)c1ccccc1
In CC#N
  photoluminescence quantum yield: 0.07

## F[B-]1(F)OC(c2ccc(N3CCCC3)cc2)=Cc2cccc[n+]21
In ClC(Cl)Cl
  photoluminescence quantum yield: 0.542

## Cc1cscc1-c1cc2c3cc(-c4cscc4C)c4nc(C(F)(F)C(F)(F)C(F)(F)F)nc5c(-c6cscc6C)cc(c6cc(-c7cscc7C)c7nc(C(F)(F)C(F)(F)C(F)(F)F)nc1c7c26)c3c45
In C1CCOC1
  photoluminescence quantum yield: 0.33

## Cc1ccc(-c2c3nc(c(-c4ccc(C)cc4)c4ccc([nH]4)c(-c4ccc(OC(=O)C(C)c5ccc(Oc6ccccc6)cc5)cc4)c4nc(c(-c5ccc(C)cc5)c5ccc2[nH]5)C=C4)C=C3)cc1 (stereo not drawn)
In ClCCl
  photoluminescence quantum yield: 0.128

## CCN(CC)c1ccc(/C=N/CC/N=C/c2ccc(N(CC)CC)cc2O)c(O)c1
In CC#N
  photoluminescence quantum yield: 0.13

## COc1cc2cc(C#Cc3ccc(/C=C(\C#N)C(=O)O)cc3)c(=O)oc2cc1OC
In CC#N
  photoluminescence quantum yield: 0.05

## COC(=O)c1cc(=O)n(C)c2cc(-c3ccccc3N(C)C)sc12
In ClCCl
  photoluminescence quantum yield: 0.17

## CCCCCCNC(=O)c1sc(-c2ccc(-c3cc(-c4ccc(C(C)(C)C)cc4)c(C(=O)NCCCCCC)s3)s2)cc1-c1ccc(C(C)(C)C)cc1
In ClCCl
  photoluminescence quantum yield: 0.31
